According to patent publication US9938262B2, “Benzamides” (Merck Patent GmbH, priority 2011, dated 2018):
Where two headings read alike, the source gives them in different places.

Key:
[1] = biological target: T1, follicle-stimulating hormone (FSH) receptor (Rattus norvegicus, UniProt P20395); test: Rat granulosa EC50 FSH (Assay B); assay type: cell-based; details: rat granulosa cells, Table 1
T1 construct: endogenous in cells; host or cells: rat granulosa cells
T1 sequence (P20395 18-692): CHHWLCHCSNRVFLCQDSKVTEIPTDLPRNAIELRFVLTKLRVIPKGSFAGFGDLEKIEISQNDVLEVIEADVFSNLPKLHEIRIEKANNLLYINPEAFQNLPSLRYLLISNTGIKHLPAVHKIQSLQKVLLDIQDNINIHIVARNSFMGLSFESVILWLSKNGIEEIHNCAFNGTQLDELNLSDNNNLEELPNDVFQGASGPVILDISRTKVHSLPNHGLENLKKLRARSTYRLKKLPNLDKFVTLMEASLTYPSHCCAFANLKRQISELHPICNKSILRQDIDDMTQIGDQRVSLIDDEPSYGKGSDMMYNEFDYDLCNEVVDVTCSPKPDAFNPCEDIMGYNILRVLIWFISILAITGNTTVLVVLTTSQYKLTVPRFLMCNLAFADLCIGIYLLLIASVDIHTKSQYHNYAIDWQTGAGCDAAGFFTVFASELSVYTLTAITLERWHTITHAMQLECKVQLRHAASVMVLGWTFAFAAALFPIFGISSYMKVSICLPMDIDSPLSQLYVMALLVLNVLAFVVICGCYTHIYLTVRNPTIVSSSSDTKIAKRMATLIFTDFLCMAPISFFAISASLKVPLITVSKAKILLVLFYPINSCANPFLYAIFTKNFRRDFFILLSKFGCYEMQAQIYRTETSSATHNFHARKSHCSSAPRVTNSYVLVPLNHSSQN
Method: Example 11: Rat Granulosa EC50 FSH (Assay B)
The assay was performed pursuant to the teaching of Yanofsky et al. (2006) Allosteric activation of the follicle-stimulating hormone (FSH) receptor by selective, nonpeptide agonists. JBC 281(19): 13226-13233, which is incorporated by reference in the disclosure of the invention.

[2] = biological target: T2, FSHR (Homo sapiens, UniProt P23945); test: EC50 of cyclic AMP production in CHO FSHR cells + EC20 FSH (Assay A); assay type: cell-based; details: CHO FSHR cells + EC20 FSH, read-out: Assay A EC50 of cyclic AMP production
T2 construct: expressed in transfected cells; host or cells: CHO (Cho-FSHR-LUC-1-1-43)
Summary of the method: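 cAMP HTRF ratio (665/620 nm) read after 1 h, 37 °C exposure of CHO-FSHR cells to compound in presence of EC20 FSH ([…]) and IBMX 200 μM. Responses given relative to FSH standard maximum; EC50 derived.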

T2 sequence (P23945 18-695): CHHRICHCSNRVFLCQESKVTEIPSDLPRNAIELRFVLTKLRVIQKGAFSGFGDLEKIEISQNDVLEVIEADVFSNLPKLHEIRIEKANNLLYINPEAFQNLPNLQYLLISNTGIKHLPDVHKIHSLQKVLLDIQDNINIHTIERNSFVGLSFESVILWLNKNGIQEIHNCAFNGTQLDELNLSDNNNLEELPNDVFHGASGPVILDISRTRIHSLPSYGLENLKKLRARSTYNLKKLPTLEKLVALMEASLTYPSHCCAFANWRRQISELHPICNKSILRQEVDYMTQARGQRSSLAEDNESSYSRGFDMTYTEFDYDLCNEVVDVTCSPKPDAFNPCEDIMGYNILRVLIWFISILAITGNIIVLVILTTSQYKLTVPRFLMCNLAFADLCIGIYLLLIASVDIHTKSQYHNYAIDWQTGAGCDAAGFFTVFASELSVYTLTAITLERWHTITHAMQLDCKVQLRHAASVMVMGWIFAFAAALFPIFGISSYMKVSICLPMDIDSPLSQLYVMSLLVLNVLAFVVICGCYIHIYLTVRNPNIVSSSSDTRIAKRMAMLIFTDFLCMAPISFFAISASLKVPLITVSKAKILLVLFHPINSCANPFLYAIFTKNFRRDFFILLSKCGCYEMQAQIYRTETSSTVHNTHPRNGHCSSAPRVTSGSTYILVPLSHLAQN
T2 sequence (P01215 25-116 partner): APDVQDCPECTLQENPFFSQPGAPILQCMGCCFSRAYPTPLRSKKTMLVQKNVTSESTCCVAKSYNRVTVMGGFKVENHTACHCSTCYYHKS
T2 sequence (P01225 19-129 partner): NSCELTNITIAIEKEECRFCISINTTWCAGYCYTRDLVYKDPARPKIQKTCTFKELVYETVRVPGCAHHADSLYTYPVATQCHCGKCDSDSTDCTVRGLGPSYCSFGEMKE

Row | SMILES | EC50 [1] [µM] | EC50 ([2]; Table 2) [µM] | other results
1 | Cc1ccccc1N1CCN(c2ccc(C(=O)NCCCN3CCCC3=O)cc2NC(=O)c2ccco2)CC1 [Compound 2] | 1 to 10 |  | EC50 ([2]; Table 1): < 0.1 µM
2 | O=C(NCC1CCCO1)c1ccc(N2CCN(Cc3ccccc3)CC2)c(NC(=O)c2ccccc2Cl)c1 (stereo not shown) [Compound 3] |  |  | Assay B % at 5 μM [1]: 10%; EC50 ([2]; Table 1): 0.1 to 1 µM
3 | Cc1ccccc1N1CCN(c2ccc(C(=O)NCCCN3CCCC3=O)cc2NC(=O)c2occc2C)CC1 [Compound 5] | 1 to 10 |  | 
4 | Cc1ccc(C(=O)Nc2cc(C(=O)NCCCN3CCCC3=O)ccc2N2CCN(c3ccccc3C)CC2)o1 [Compound 6] | 0.1 to 1 |  | 
5 | Cc1ccccc1N1CCN(c2ccc(C(=O)NCCc3c[nH]cn3)cc2NC(=O)c2ccco2)CC1 [Compound 15] | 0.1 to 1 |  | EC50 ([2]; Table 1): 0.1 to 1 µM
6 | Cc1ccccc1N1CCN(c2ccc(C(=O)NCCCN3CCCC3=O)cc2NC(=O)c2ccccc2)CC1 [Compound 27] | 1 to 10 |  | 
7 | Cc1ccccc1N1CCN(c2ccc(C(=O)NCCCN3CCCC3=O)cc2NC(=O)c2ccc(F)cc2)CC1 [Compound 31] | 0.1 to 1 |  | EC50 ([2]; Table 1): 0.1 to 1 µM
8 | Cc1ccc(C(=O)Nc2cc(C(=O)NCCCN3CCCC3=O)ccc2N2CCN(c3ccccc3C)CC2)cc1 [Compound 35] | 1 to 10 |  | EC50 ([2]; Table 1): 0.1 to 1 µM
9 | Cc1ccccc1N1CCN(c2ccc(C(=O)NCCCN3CCCC3=O)cc2NC(=O)c2ccccn2)CC1 [Compound 36] | 0.1 to 1 |  | 
10 | Cc1ccccc1N1CCN(c2ccc(C(=O)NCCCN3CCCC3=O)cc2NS(=O)(=O)c2cccc3cccnc23)CC1 [Compound 45] | 0.1 to 1 |  | EC50 ([2]; Table 1): 0.1 to 1 µM
11 | Cc1ccccc1N1CCN(c2ccc(C(=O)NC3CCN(S(C)(=O)=O)CC3)cc2NC(=O)c2ccco2)CC1 [Compound 58, Furan-2-carboxylic acid [5-(1-methanesulfonyl-piperidin-4-ylcarbamoyl)-2-(4-o-tolyl-piperazin-1-yl)-phenyl]-amide] |  |  | Assay B % at 5 μM [1]: 27%; EC50 ([2]; Table 1): 0.1 to 1 µM
12 | Cc1nc(C(=O)Nc2cc(C(=O)NCCCN3CCCC3=O)ccc2N2CCN(c3ccccc3C)CC2)co1 [Compound 75] | > 10 |  | 
13 | Cc1ccccc1N1CCN(c2ccc(C(=O)NCCCN3CCCC3=O)cc2NC(=O)C2CC2)CC1 [Compound 84] | 0.1 to 1 |  | 
14 | Cc1ccccc1N1CCN(c2ccc(C(=O)NCCCC3CCOC3)cc2NC(=O)c2ccco2)CC1 (stereo not shown) [Compound 158] | 0.1 to 1 |  | 
15 | Cc1ccccc1N1CCN(c2ccc(C(=O)NCc3cccc(CN(C)C)c3)cc2NS(C)(=O)=O)CC1 [Compound 563] |  | > 10 | 
16 | Cc1ccccc1N1CCN(c2ccc(C(=O)NCc3ccc(F)c(CN(C)C)c3)cc2NC(=O)c2coc(C3CC3)n2)CC1 [Compound 564] |  | 0.1 to 1 | 
17 | Cc1ccccc1N1CCN(c2ccc(C(=O)NC[C@H](O)CO)cc2NC(=O)c2coc(C3CC3)n2)CC1 [Compound 565] |  | 0.1 to 1 | 
18 | Cc1ccccc1N1CCN(c2ccc(C(=O)NC[C@H](O)c3ccccc3)cc2NC(=O)c2coc(C3CC3)n2)CC1 [Compound 566] |  | 0.1 to 1 | 
19 | Cc1ccccc1N1CCN(c2ccc(C(=O)NC[C@@H](O)CO)cc2NC(=O)c2coc(C3CC3)n2)CC1 [Compound 567] |  | 0.1 to 1 | 
20 | Cc1ccccc1N1CCN(c2ccc(C(=O)NC[C@@H](N)c3ccccc3)cc2NC(=O)c2coc(C3CC3)n2)CC1 [Compound 568] |  | 0.1 to 1 | 
21 | Cc1ccc2[nH]cc(CCNC(=O)c3ccc(N4CCN(c5ccccc5C)CC4)c(NC(=O)c4coc(C5CC5)n4)c3)c2c1 [Compound 569] |  | 1 to 10 | 
22 | Cc1ccccc1N1CCN(c2ccc(C(=O)NCCCc3cccc(O)c3)cc2NC(=O)c2coc(C3CC3)n2)CC1 [Compound 570] |  | 0.1 to 1 | 
23 | Cc1ccccc1N1CCN(c2ccc(C(=O)N3CCC4(CC3)COC4)cc2NC(=O)c2coc(C3CC3)n2)CC1 [Compound 571] |  | 0.1 to 1 | 
24 | Cc1ccccc1N1CCN(c2ccc(C(=O)NCCCN3CCCC3=O)cc2NCc2ccco2)CC1 [Compound 572] |  | < 0.1 | 
25 | Cc1ccc(CNc2cc(C(=O)NCc3cccc(CN(C)C)c3)ccc2N2CCN(c3ccccc3C)CC2)o1 [Compound 573] |  | 1 to 10 | 
26 | Cc1ccccc1N1CCN(c2ccc(C(=O)NCc3cccc(CO)c3)cc2NC(=O)c2coc(C3CC3)n2)CC1 [Compound 574] |  | 0.1 to 1 | 
27 | Cc1ccccc1N1CCN(c2ccc(C(=O)N[C@H]3CCC[C@@H](O)C3)cc2NC(=O)c2coc(C3CC3)n2)CC1 [Compound 575] |  | < 0.1 | 
